Laboratory results as given in patent publication US6355799B1, “Substituted benzene compounds, process for their preparation, and herbicidal and defoliant compositions containing them” (ISK Americas Incorporated, priority 1997, dated 2002).

Experiments:
Assay type in all cases: in vivo
[1] = test system: field corn (Zea mays L., var. Dekalb 535, CORN); test: Pre-emerge test, crop safety; details: rating scale 0-100, 14 days after application
How it was run: (§1)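 Visual ratings on a 0-100 scale (0 no damage, 100 all plants dead) were taken at 14 days after treatment. Rates of 15-1000 g ai/ha in acetone, 187 l/ha, were sprayed onto soil one day after planting (pre-emerge) or onto 2-3 leaf plants with 0.25% v/v surfactant (post-emerge).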

[2] = test system: upland rice (Oryza sp., var. Tebonnet, RICE); test: Pre-emerge test, crop safety; details: rating scale 0-100, 14 days after application
How it was run: as §1

[3] = test system: redroot pigweed (Amaranthus retroflexus, AMARE); test: Pre-emerge test, greenhouse herbicide activity screening; details: rating scale 0-100, 14 days after application
How it was run: (§2)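 Compounds in acetone were track-sprayed at 15-1000 g ai/ha (187 l/ha) on sandy loam pots: pre-emerge one day after seeding, post-emerge at 2-3 leaf stage with 0.25% v/v non-ionic surfactant. Phytotoxicity was rated 14 days later on a 0 (no damage) to 100 (complete death) scale.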

[4] = test system: large crabgrass (Digitaria sanguinalis, DIGSA); test: Post-emerge test, greenhouse herbicide activity screening; details: rating scale 0-100 (0 no damage, 100 complete death), 14 days after application
How it was run: as §2

[5] = test system: barnyardgrass (Echinochloa crus-galli, ECHCG); test: as above; details: rating scale 0-100 (0 no damage, 100 complete death), 14 days after application
How it was run: as §2

[6] = test system: sicklepod (Cassia obtusifolia, CASOB); test: as above; details: rating scale 0-100 (0 no damage, 100 complete death), 14 days after application
How it was run: as §2

[7] = test system: lambsquarters (Chenopodium album, CHEAL); test: as above; details: rating scale 0-100 (0 no damage, 100 complete death), 14 days after application
How it was run: as §2

[8] = test system: velvetleaf (Abutilon theophrasti, ABUTH); test: as above; details: rating scale 0-100 (0 no damage, 100 complete death), 14 days after application
How it was run: as §2

[9] = test system: green foxtail (Setaria viridis, SETVI); test: as above; details: rating scale 0-100 (0 no damage, 100 complete death), 14 days after application
How it was run: as §2

[10] = test system: johnsongrass (Sorghum halepense, SORHA); test: as above; details: rating scale 0-100 (0 no damage, 100 complete death), 14 days after application
How it was run: as §2

[11] = test system: redroot pigweed (Amaranthus retroflexus, AMARE); test: as above; details: rating scale 0-100 (0 no damage, 100 complete death), 14 days after application
How it was run: as §2

[12] = test system: ivyleaf morningglory (Ipomoea hederacea, IPOHE); test: as above; details: rating scale 0-100 (0 no damage, 100 complete death), 14 days after application
How it was run: as §2

[13] = test system: large crabgrass (Digitaria sanguinalis, DIGSA); test: Pre-emerge test, greenhouse herbicide activity screening; details: rating scale 0-100, 14 days after application
How it was run: (§3)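 Compounds in acetone were track-sprayed at 15–1000 g ai/ha: pre-emergence onto soil sown the previous day, then top-watered to incorporate and later bottom-watered; post-emergence onto 2–3 leaf plants with 0.25% v/v surfactant, bottom-watered only. Ratings on a 0–100 phytotoxicity scale were taken at day 14.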

[14] = test system: barnyardgrass (Echinochloa crus-galli, ECHCG); test: as above; details: rating scale 0-100, 14 days after application
How it was run: as §3

[15] = test system: sicklepod (Cassia obtusifolia, CASOB); test: as above; details: rating scale 0-100, 14 days after application
How it was run: as §3

[16] = test system: lambsquarters (Chenopodium album, CHEAL); test: as above; details: rating scale 0-100, 14 days after application
How it was run: as §3

[17] = test system: velvetleaf (Abutilon theophrasti, ABUTH); test: as above; details: rating scale 0-100, 14 days after application
How it was run: as §3

[18] = test system: green foxtail (Setaria viridis, SETVI); test: as above; details: rating scale 0-100, 14 days after application
How it was run: as §3

[19] = test system: johnsongrass (Sorghum halepense, SORHA); test: as above; details: rating scale 0-100, 14 days after application
How it was run: as §3

[20] = test system: ivyleaf morningglory (Ipomoea hederacea, IPOHE); test: as above; details: rating scale 0-100, 14 days after application
How it was run: as §3

[21] = test system: field corn (Zea mays L., var. Dekalb 535, CORN); test: Post-emerge test, crop safety; details: rating scale 0-100 (0 no damage, 100 complete death), 14 days after application
How it was run: (§4)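 Rating: 0–100 visual injury, 14 DAA. Application: acetone, 187 l/ha, 15–1000 g ai/ha, flat-fan track sprayer with nozzle 40–45 cm above soil or canopy. Post-emerge runs used 0.25% v/v surfactant on 2–3 leaf plants.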

[22] = test system: upland rice (Oryza sp., var. Tebonnet, RICE); test: Post-emerge test, crop safety; details: rating scale 0-100 (0 no damage, 100 complete death), 14 days after application
How it was run: as §4

COc1c(Cl)cc(F)c(-n2c(=O)cc(C(F)(F)F)n(C)c2=O)c1CC(C)(Cl)C(=O)OCc1ccccc1 (centres unmarked) [14-41]
Pre-emerge phytotoxicity rating, crop damage CORN ([1]; 63 g ai/ha): 0 | Pre-emerge phytotoxicity rating, crop damage CORN ([1]; 250 g ai/ha): 0 | Pre-emerge phytotoxicity rating, crop damage RICE ([2]; 63 g ai/ha): 0 | Pre-emerge phytotoxicity rating, crop damage RICE ([2]; 250 g ai/ha): 50 | Pre-emerge herbicidal activity, phytotoxicity rating AMARE ([3]; 63 g ai/ha): 100 | Pre-emerge herbicidal activity, phytotoxicity rating AMARE ([3]; 250 g ai/ha): 100 | Post-emerge Herbicidal Activity, phytotoxicity rating DIGSA ([4]; Rate 63 g ai/ha): 100 | Post-emerge Herbicidal Activity, phytotoxicity rating DIGSA ([4]; Rate 250 g ai/ha): 100 | Post-emerge Herbicidal Activity, phytotoxicity rating ECHCG ([5]; Rate 63 g ai/ha): 100 | Post-emerge Herbicidal Activity, phytotoxicity rating ECHCG ([5]; Rate 250 g ai/ha): 100 | Post-emerge Herbicidal Activity, phytotoxicity rating CASOB ([6]; Rate 63 g ai/ha): 0 | Post-emerge Herbicidal Activity, phytotoxicity rating CASOB ([6]; Rate 250 g ai/ha): 0 | Post-emerge Herbicidal Activity, phytotoxicity rating CHEAL ([7]; Rate 63 g ai/ha): 100 | Post-emerge Herbicidal Activity, phytotoxicity rating CHEAL ([7]; Rate 250 g ai/ha): 100 | Post-emerge Herbicidal Activity, phytotoxicity rating ABUTH ([8]; Rate 63 g ai/ha): 100 | Post-emerge Herbicidal Activity, phytotoxicity rating ABUTH ([8]; Rate 250 g ai/ha): 100 | Post-emerge Herbicidal Activity, phytotoxicity rating SETVI ([9]; Rate 63 g ai/ha): 90 | Post-emerge Herbicidal Activity, phytotoxicity rating SETVI ([9]; Rate 250 g ai/ha): 100 | Post-emerge Herbicidal Activity, phytotoxicity rating SORHA ([10]; Rate 63 g ai/ha): 40 | Post-emerge Herbicidal Activity, phytotoxicity rating SORHA ([10]; Rate 250 g ai/ha): 70 | Post-emerge Herbicidal Activity, phytotoxicity rating AMARE ([11]; Rate 63 g ai/ha): 100 | Post-emerge Herbicidal Activity, phytotoxicity rating AMARE ([11]; Rate 250 g ai/ha): 100 | Post-emerge Herbicidal Activity, phytotoxicity rating IPOHE ([12]; Rate 63 g ai/ha): 30 | Post-emerge Herbicidal Activity, phytotoxicity rating IPOHE ([12]; Rate 250 g ai/ha): 50 | Pre-emerge herbicidal activity, phytotoxicity rating DIGSA ([13]; 63 g ai/ha): 50 | Pre-emerge herbicidal activity, phytotoxicity rating DIGSA ([13]; 250 g ai/ha): 100 | Pre-emerge herbicidal activity, phytotoxicity rating ECHCG ([14]; 63 g ai/ha): 0 | Pre-emerge herbicidal activity, phytotoxicity rating ECHCG ([14]; 250 g ai/ha): 80 | Pre-emerge herbicidal activity, phytotoxicity rating CASOB ([15]; 63 g ai/ha): 0 | Pre-emerge herbicidal activity, phytotoxicity rating CASOB ([15]; 250 g ai/ha): 0 | Pre-emerge herbicidal activity, phytotoxicity rating CHEAL ([16]; 63 g ai/ha): 100 | Pre-emerge herbicidal activity, phytotoxicity rating CHEAL ([16]; 250 g ai/ha): 100 | Pre-emerge herbicidal activity, phytotoxicity rating ABUTH ([17]; 63 g ai/ha): 90 | Pre-emerge herbicidal activity, phytotoxicity rating ABUTH ([17]; 250 g ai/ha): 100 | Pre-emerge herbicidal activity, phytotoxicity rating SETVI ([18]; 63 g ai/ha): 30 | Pre-emerge herbicidal activity, phytotoxicity rating SETVI ([18]; 250 g ai/ha): 100 | Pre-emerge herbicidal activity, phytotoxicity rating SORHA ([19]; 63 g ai/ha): 0 | Pre-emerge herbicidal activity, phytotoxicity rating SORHA ([19]; 250 g ai/ha): 0 | Pre-emerge herbicidal activity, phytotoxicity rating IPOHE ([20]; 63 g ai/ha): 0 | Pre-emerge herbicidal activity, phytotoxicity rating IPOHE ([20]; 250 g ai/ha): 40 | Post-emerge phytotoxicity rating CORN (crop damage) ([21]; Rate 63 g ai/ha): 100 | Post-emerge phytotoxicity rating CORN (crop damage) ([21]; Rate 250 g ai/ha): 100 | Post-emerge phytotoxicity rating RICE (crop damage) ([22]; Rate 63 g ai/ha): 20 | Post-emerge phytotoxicity rating RICE (crop damage) ([22]; Rate 250 g ai/ha): 95
